According to PMC4138991, “Building a Better Dynasore: The Dyngo Compounds Potently Inhibit Dynamin and Endocytosis” (Traffic (Copenhagen, Denmark), 2013):
Entries after “also recorded” stand apart in the source; their conditions may differ.

How the values were obtained:
[1] = molecular target: native sheep brain dynamin I (Ovis aries, UniProt A0ACI6PDC7); experiment: PS liposome-stimulated (helical) dynamin I GTPase assay (Malachite Green); assay type: biochemical; conditions: IC50 with versus without Tween-80
From the text: Recombinant dynamin I was used only for the data in Table 2. The dynamin antibodies were from: Dynamin I—in‐house YF2 antibodies, raised in rabbits against two different synthetic peptides: dynamin I 629‐647 ([…]) and dynamin I 765–778 ([…]), used at 1/2000 dilution, as previously described 53; Dynamin II—Santa Cruz (C‐18, sc‐6400, used at 1/1000) and Dynamin III—Santa Cruz (P‐13, sc‐69472, used at 1/500 dilution).
The Malachite Green colorimetric GTPase assay was as described 10. Dynamin I activity was measured in its SAI activity state or was stimulated by three different methods. As each stimulus activates dynamin to different extents, each assay required different dynamin concentrations. First, maximal dynamin activity was stimulated by sonicated PS liposomes 10. […] Finally, dynamin (500 nM) SAI activity was measured using high concentrations of dynamin, which promote its cooperative self‐assembly into rings (but not helices) 26. […] After the Vmax and Km values were determined, the data were transformed using the Lineweaver–Burke equation, 1/v = 1/Vmax + (Km/Vmax)(1/[S]).

[2] = test system: Tfn-A594 uptake in U2OS cells; experiment: Automated quantitative CME assay: Tfn-A594 uptake; assay type: cell-based; conditions: for CME IC50 (μM) / IC50: Tfn-A594 uptake, U2OS, 30-min preincubation, serum-free; for IC50: Homo sapiens, read-out: CME IC50
Experimental: To determine whether the Dyngo compounds are widespread cell‐permeable and endocytosis inhibitors, CME of fluorescent Tfn was compared in an automated quantitative endocytosis assay in U2OS cells. The assay consisted of over 1200 cells under serum‐free conditions; after preincubation with each analog for 30 min the uptake of fluorescent Tfn was measured. We refer to this endocytosis as non‐neuronal CME to distinguish it from CME of synaptic vesicles in presynaptic terminals of neurons, which is referred to as synaptic vesicle endocytosis (SVE). In these cells, Tfn uptake is presumed to be mediated by dynamin II, because this is the only isoform of dynamin that they express, as determined by western blot (Figure S6). […] There was no apparent correlation between in vitro and in‐cell activity, with potent dynamin‐active compounds like 1a and 14a having no effect on non‐neuronal CME (Table 1). This might be explained by low membrane permeability of these analogs, their cellular metabolism or rapid cellular efflux mechanisms.
Quantitative analysis of the inhibition of Alexa 594‐Tfn endocytosis in U2OS cells was performed on large numbers of serum‐starved cells as described 10. Synaptic vesicle recycling in cultured CGNs was monitored using FM1‐43 as described 57 (see Supporting Information). Dynamin‐independent endocytosis was measured using internalization of CT in NIH3T3 cells (using Tfn as a control) as described previously 58 with minor changes (see Supporting Information). The average number of cells for each data point was ˜1200. IC50 values were calculated using GraphPad Prism 5 and data were expressed as mean ± 95% confidence interval (CI) for three wells and ˜1200 cells.

dynamin = test system: dynamin; design: method as in PMID 19459681; conditions: read-out: dynamin inhibitor potency; cited from earlier work

Chain of native sheep brain dynamin I (A0ACI6PDC7 entry or part of it): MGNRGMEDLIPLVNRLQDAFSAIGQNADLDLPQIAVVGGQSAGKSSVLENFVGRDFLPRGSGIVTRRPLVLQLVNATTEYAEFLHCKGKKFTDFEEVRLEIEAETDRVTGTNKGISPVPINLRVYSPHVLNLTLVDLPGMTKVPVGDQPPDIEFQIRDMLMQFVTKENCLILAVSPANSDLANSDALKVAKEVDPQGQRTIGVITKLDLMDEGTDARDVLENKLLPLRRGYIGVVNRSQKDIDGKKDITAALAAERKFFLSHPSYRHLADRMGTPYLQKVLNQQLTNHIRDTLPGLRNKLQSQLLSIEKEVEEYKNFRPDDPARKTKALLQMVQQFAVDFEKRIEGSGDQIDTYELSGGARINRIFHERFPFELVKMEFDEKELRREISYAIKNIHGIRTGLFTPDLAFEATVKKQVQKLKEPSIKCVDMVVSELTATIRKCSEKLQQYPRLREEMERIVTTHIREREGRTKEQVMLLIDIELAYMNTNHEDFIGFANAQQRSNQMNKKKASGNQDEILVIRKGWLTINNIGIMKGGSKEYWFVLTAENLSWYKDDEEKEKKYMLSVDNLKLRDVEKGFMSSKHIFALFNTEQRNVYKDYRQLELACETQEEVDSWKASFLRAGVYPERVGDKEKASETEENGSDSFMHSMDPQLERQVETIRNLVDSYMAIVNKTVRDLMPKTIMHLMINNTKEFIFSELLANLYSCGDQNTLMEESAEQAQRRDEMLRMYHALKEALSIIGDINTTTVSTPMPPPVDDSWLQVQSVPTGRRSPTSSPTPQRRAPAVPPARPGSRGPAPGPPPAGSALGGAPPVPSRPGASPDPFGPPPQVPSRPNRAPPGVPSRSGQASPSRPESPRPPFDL

| Compound | CME IC50 (μM) [2] | IC50 [2] [µM] | also measured |
| --- | --- | --- | --- |
| O=C(N/N=C/c1ccc(O)cc1O)c1cc2ccccc2cc1O [1a, (E)-N'-(2,4-Dihydroxybenzylidene)-3-hydroxy-2-naphthohydrazide] | little or no effect; also recorded: Not active (n = 3) |  | detergent (Tween) sensitivity: fold potency change on removal of Tween [1]: < 10 fold |
| O=C(N/N=C/c1ccc(O)c(O)c1O)c1cc2ccccc2cc1O [3a, (E)-3-Hydroxy-N'-(2,3,4-trihydroxybenzylidene) -2-naphthohydrazide] |  | 9.8 ± 1.5 |  |
| O=C(N/N=C/c1cc(O)c(O)c(O)c1)c1cc2ccccc2cc1O [5a, (E)-3-Hydroxy-N'-(3,4,5-trihydroxybenzylidene) -2-naphthohydrazide] |  | 6.2 ± 2 | times more potent than dynasore in CME assay ([2]; same conditions, U2OS Tfn uptake): six times more potent |
| O=C(N/N=C/c1cc(O)cc(O)c1)c1cc2ccccc2cc1O [8a, (E)-N'-(3,5-Dihydroxybenzylidene)-3-hydroxy-2-naphthohydrazide] |  | 179 ± 20 |  |
| CC(=O)Nc1ccc(/C=N/NC(=O)c2cc3ccccc3cc2O)cc1 [10a, (E)-N-(4-{[2-(3-hydroxy-2-naphthoyl)hydrazono]methyl}phenyl)acetamide] | Not active (n = 2) |  |  |
| Cc1[nH]c2ccccc2c1/C=N/NC(=O)c1cc2ccccc2cc1O [11a, (E)-3-hydroxy-N'-((2-methyl-1H-indol-3-yl)methylene)-2-naphthohydrazide] |  | 63.4 ± 4.4 |  |
| O=C(NN=Cc1cnc2ccccc2n1)c1cc2ccccc2cc1O [12a, 3-Hydroxynaphthalene-2-carboxylic acid quinoxaline-2-ylmethylenehydrazide] | Not active (n = 2) |  |  |
| O=C(N/N=C/c1ccc2nonc2c1)c1cc2ccccc2cc1O [13a, (E)-N'-(benzo[c][1,2,5]oxadiazol-5-ylmethylene)-3-hydroxy-2-naphthohydrazide] | Not active (n = 3) |  |  |
| O=C(N/N=C/c1ccc2nsnc2c1)c1cc2ccccc2cc1O [14a, (E)-N'-(benzo[c][1,2,5]thiadiazol-5-ylmethylene)-3-hydroxy-2-naphthohydrazide] | no effect; also recorded: Not active (n = 4) |  |  |
| CCCCCCCCNC(=O)C(C#N)=Cc1cn(CCN(C)C)c2ccccc12 [Dynole 34‐2, 2‐cyano‐3‐(1‐(2‐(dimethylamino)ethyl)‐1H‐indol‐3‐yl)‐N‐octylacrylamide] |  |  | IC50 (dynamin): 1.3 ± 0.3 µM |
